From ChEMBL document CHEMBL1201861, “Genomics of Drug Sensitity in Cancer screening data, Wellcome Trust Sanger Institute”

Legend:
Assay in all cases: cells
Conditions in all cases: Homo sapiens
MHH-PREB-1 = assay type: functional, cell-based;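 also: cell viability assay measuring inhibition of proliferation of human MHH-PREB-1 cells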
Description: SANGER: Inhibition of human MHH-PREB-1 cell growth in a cell viability assay.

HCC2218 = assay type: functional, cell-based;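 also: cell viability assay read-out, with IC50 given as the concentration that inhibits growth of the cell line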
Description: SANGER: Inhibition of human HCC2218 cell growth in a cell viability assay.

D-502MG = assay type: functional, cell-based
Description: SANGER: Inhibition of human D-502MG cell growth in a cell viability assay.

SK-MEL-2 = assay type: functional, cell-based;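 also: growth inhibition of human SK-MEL-2 cells measured with a cell viability assay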
Description: SANGER: Inhibition of human SK-MEL-2 cell growth in a cell viability assay.

HDLM-2 = assay type: functional, cell-based;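 also: cell viability assay measuring suppression of HDLM-2 proliferation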
Description: SANGER: Inhibition of human HDLM-2 cell growth in a cell viability assay.

RXF 393 = assay type: functional, cell-based;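 also: growth inhibition of human RXF 393 cells, read out with a cell viability assay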
Description: SANGER: Inhibition of human RXF393 cell growth in a cell viability assay.

NB13 = assay type: functional, cell-based;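 also: cell viability readout measuring growth inhibition of human NB13 cells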
Description: SANGER: Inhibition of human NB13 cell growth in a cell viability assay.

NB5 = assay type: functional, cell-based;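 also: growth inhibition of NB5 cells, read out as cell viability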
Description: SANGER: Inhibition of human NB5 cell growth in a cell viability assay.

Calu-6 = assay type: functional, cell-based;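 also: growth of human Calu-6 cells, read out by a cell viability assay, IC50 marking inhibition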
Description: SANGER: Inhibition of human Calu-6 cell growth in a cell viability assay.

NCI-H2126 = assay type: functional, cell-based;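 also: growth inhibition of the cancer cell line, determined with a cell viability readout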
Description: SANGER: Inhibition of human NCI-H2126 cell growth in a cell viability assay.

A3-KAW = assay type: functional, cell-based;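 also: growth inhibition of human A3-KAW cells, read out with a cell viability assay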
Description: SANGER: Inhibition of human A3-KAW cell growth in a cell viability assay.

MV4-11 = assay type: functional, cell-based, MV-4-11;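 also: cell viability readout measuring growth inhibition of human MV-4-11 cells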
Description: SANGER: Inhibition of human MV-4-11 cell growth in a cell viability assay.

MZ7-mel = assay type: functional, cell-based;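 also: growth inhibition of human MZ7-mel cells, measured by a cell viability assay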
Description: SANGER: Inhibition of human MZ7-mel cell growth in a cell viability assay.

NCI-H747 = assay type: functional, cell-based;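 also: growth inhibition of human NCI-H747 cells, read out by a cell viability assay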
Description: SANGER: Inhibition of human NCI-H747 cell growth in a cell viability assay.

HCC1187 = assay type: functional, cell-based;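 also: growth inhibition of HCC1187 cells, read out with a cell viability assay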
Description: SANGER: Inhibition of human HCC1187 cell growth in a cell viability assay.

EW-24 = assay type: functional, cell-based;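 also: human EW-24 cancer cell line, growth inhibition read out via a cell viability assay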
Description: SANGER: Inhibition of human EW-24 cell growth in a cell viability assay.

IA-LM = assay type: functional, cell-based;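 also: cell viability assay measuring growth inhibition of human IA-LM cells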
Description: SANGER: Inhibition of human IA-LM cell growth in a cell viability assay.

Becker = assay type: functional, cell-based;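 also: growth inhibition of Becker cells, read out with a cell viability assay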
Description: SANGER: Inhibition of human Becker cell growth in a cell viability assay.

MC116 = assay type: functional, cell-based;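 also: growth inhibition of MC116 cells, read out with a cell viability assay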
Description: SANGER: Inhibition of human MC116 cell growth in a cell viability assay.

MS-1 = assay type: functional, cell-based
Description: SANGER: Inhibition of human MS-1 cell growth in a cell viability assay.

TE-12 = assay type: functional, cell-based;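 also: growth inhibition of TE-12 cells, read out by a cell viability assay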
Description: SANGER: Inhibition of human TE-12 cell growth in a cell viability assay.

IST-MEL1 = assay type: functional, cell-based;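 also: growth inhibition of the cell line, read out with a cell viability assay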
Description: SANGER: Inhibition of human IST-MEL1 cell growth in a cell viability assay.

A704 = assay type: functional, cell-based;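 also: growth inhibition of human A704 cells, read out with a cell viability assay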
Description: SANGER: Inhibition of human A704 cell growth in a cell viability assay.

DMS-114 = assay type: functional, cell-based
KP-N-YS = assay type: functional, cell-based;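 also: cell viability assay measuring inhibition of cell line growth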
Description: SANGER: Inhibition of human KP-N-YS cell growth in a cell viability assay.

JVM-3 = assay type: functional, cell-based;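 also: growth inhibition of human JVM-3 cells, read out with a cell viability assay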
Description: SANGER: Inhibition of human JVM-3 cell growth in a cell viability assay.

TE-11 = assay type: functional, cell-based;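 also: growth inhibition of human TE-11 cells, read out by a cell viability assay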
Description: SANGER: Inhibition of human TE-11 cell growth in a cell viability assay.

MLMA = assay type: functional, cell-based;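 also: growth inhibition of MLMA cells (human), determined through a cell viability readout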
Description: SANGER: Inhibition of human MLMA cell growth in a cell viability assay.

LU-139 = assay type: functional, cell-based
Description: SANGER: Inhibition of human LU-139 cell growth in a cell viability assay.

ES6 = assay type: functional, cell-based;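 also: growth inhibition of human ES6 cells, read out with a cell viability assay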
Description: SANGER: Inhibition of human ES6 cell growth in a cell viability assay.

PSN1 = assay type: functional, cell-based;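 also: suppression of growth of human PSN1 cells, read out by a cell viability assay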
Description: SANGER: Inhibition of human PSN1 cell growth in a cell viability assay.

A388 = assay type: functional, cell-based;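 also: growth inhibition of human A388 cells, read out with a cell viability assay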
Description: SANGER: Inhibition of human A388 cell growth in a cell viability assay.

DEL = assay type: functional, cell-based;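 also: growth inhibition of the human DEL cell line, read out with a cell viability assay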
Description: SANGER: Inhibition of human DEL cell growth in a cell viability assay.

HC-1 = assay type: functional, cell-based;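 also: growth inhibition of HC-1 cells measured by a cell viability assay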
Description: SANGER: Inhibition of human HC-1 cell growth in a cell viability assay.

ES8 = assay type: functional, cell-based;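 also: growth inhibition of human ES8 cells, read out with a cell viability assay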
Description: SANGER: Inhibition of human ES8 cell growth in a cell viability assay.

NCI-H1770 = assay type: functional, cell-based;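 also: growth inhibition of NCI-H1770 cells determined with a viability readout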
Description: SANGER: Inhibition of human NCI-H1770 cell growth in a cell viability assay.

ES7 = assay type: functional, cell-based;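 also: growth inhibition of cultured human ES7 cells, read out as cell viability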
Description: SANGER: Inhibition of human ES7 cell growth in a cell viability assay.

ES3 = assay type: functional, cell-based;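 also: growth inhibition of ES3 cells, read out with a cell viability assay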
Description: SANGER: Inhibition of human ES3 cell growth in a cell viability assay.

SF-126 = assay type: functional, cell-based;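 also: growth inhibition of human SF126 cells, read out with a cell viability assay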
Description: SANGER: Inhibition of human SF126 cell growth in a cell viability assay.

GCIY = assay type: functional, cell-based;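 also: growth inhibition of the human GCIY cell line, read out by a cell viability assay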
Description: SANGER: Inhibition of human GCIY cell growth in a cell viability assay.

LAMA-84 = assay type: functional, cell-based;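 also: growth inhibition of LAMA-84 cells, read out with a cell viability assay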
Description: SANGER: Inhibition of human LAMA-84 cell growth in a cell viability assay.

ES4 = assay type: functional, cell-based;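 also: growth inhibition of human ES4 cells, read out by a cell viability assay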
Description: SANGER: Inhibition of human ES4 cell growth in a cell viability assay.

MZ1-PC = assay type: functional, cell-based;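 also: cell viability assay measuring growth inhibition of human MZ1-PC cells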
Description: SANGER: Inhibition of human MZ1-PC cell growth in a cell viability assay.

HEL = assay type: functional, cell-based;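 also: growth inhibition of HEL cells, read out with a cell viability assay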
Description: SANGER: Inhibition of human HEL cell growth in a cell viability assay.

NCI-H720 = assay type: functional, cell-based;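 also: growth inhibition of human NCI-H720 cells determined by a cell viability assay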
Description: SANGER: Inhibition of human NCI-H720 cell growth in a cell viability assay.

DJM-1 = assay type: functional, cell-based;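 also: growth inhibition of human DJM-1 cells, read out by a cell viability assay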
Description: SANGER: Inhibition of human DJM-1 cell growth in a cell viability assay.

KGN = assay type: functional, cell-based;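 also: growth inhibition of KGN cells, read out with a cell viability assay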
Description: SANGER: Inhibition of human KGN cell growth in a cell viability assay.

no-10 = assay type: functional, cell-based;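 also: growth inhibition of no-10 cells, read out with a cell viability assay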
Description: SANGER: Inhibition of human no-10 cell growth in a cell viability assay.

NCI-H82 = assay type: functional, cell-based;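 also: growth inhibition of NCI-H82 cells, measured with a cell viability readout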
Description: SANGER: Inhibition of human NCI-H82 cell growth in a cell viability assay.

NCI-H1299 = assay type: functional, cell-based;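 also: growth inhibition of human NCI-H1299 cells, read out by a cell viability assay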
Description: SANGER: Inhibition of human NCI-H1299 cell growth in a cell viability assay.

NCI-H23 = assay type: functional, cell-based;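 also: cell viability assay measuring growth inhibition of NCI-H23 cells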
Description: SANGER: Inhibition of human NCI-H23 cell growth in a cell viability assay.

BB65-RCC = assay type: functional, cell-based;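 also: growth inhibition of the cell line, measured with a cell viability assay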
Description: SANGER: Inhibition of human BB65-RCC cell growth in a cell viability assay.

TK-10 = assay type: functional, cell-based;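 also: growth inhibition of TK-10 cells, read out in a cell viability assay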
Description: SANGER: Inhibition of human TK10 cell growth in a cell viability assay.

NCI-H446 = assay type: functional, cell-based
Description: SANGER: Inhibition of human NCI-H446 cell growth in a cell viability assay.

GT3TKB = assay type: functional, cell-based
Description: SANGER: Inhibition of human GT3TKB cell growth in a cell viability assay.

SNU1 = assay type: functional, cell-based
Description: SANGER: Inhibition of human NCI-SNU-1 cell growth in a cell viability assay.

NB69 = assay type: functional, cell-based
Description: SANGER: Inhibition of human NB69 cell growth in a cell viability assay.

EM-2 = assay type: functional, cell-based
Description: SANGER: Inhibition of human EM-2 cell growth in a cell viability assay.

RCC10RGB = assay type: functional, cell-based
Description: SANGER: Inhibition of human RCC10RGB cell growth in a cell viability assay.

L-363 = assay type: functional, cell-based
Description: SANGER: Inhibition of human L-363 cell growth in a cell viability assay.

HOP-62 = assay type: functional, cell-based
Description: SANGER: Inhibition of human HOP-62 cell growth in a cell viability assay.

SBC-1 = assay type: functional, cell-based
Description: SANGER: Inhibition of human SBC-1 cell growth in a cell viability assay.

SK-N-DZ = assay type: functional, cell-based
Description: SANGER: Inhibition of human SK-N-DZ cell growth in a cell viability assay.

C8166 = assay type: functional, cell-based
Description: SANGER: Inhibition of human C8166 cell growth in a cell viability assay.

NOS-1 = assay type: functional, cell-based
Description: SANGER: Inhibition of human NOS-1 cell growth in a cell viability assay.

RPMI-8866 = assay type: functional, cell-based
Description: SANGER: Inhibition of human RPMI-8866 cell growth in a cell viability assay.

Q: `C/C=C(/C)C(=O)O[C@H]1C(C)=C2[C@H]([C@@H]1OC(=O)CCCCCCC)[C@@](C)(OC(C)=O)C[C@H](OC(=O)CCC)[C@@]1(O)[C@H]2OC(=O)[C@@]1(C)O` [THAPSIGARGIN] was tested. Which IC50 (MHH-PREB-1) did it give?
A: 12.6 nM

Q: And the IC50 (HCC2218)?
A: 58.9 nM

Q: What about the IC50 (D-502MG) of the same compound?
A: 343 nM

Q: And the IC50 (SK-MEL-2)?
A: < 2 nM

Q: What about the IC50 (HDLM-2) of the same compound?
A: 215 nM

Q: What about the IC50 (RXF 393) of the same compound?
A: > 512 nM

Q: And the IC50 (NB13)?
A: 9.45 nM

Q: And the IC50 (NB5)?
A: 66.6 nM

Q: And the IC50 (Calu-6)?
A: 4.79 nM

Q: And the IC50 (NCI-H2126)?
A: 79.3 nM

Q: And the IC50 (A3-KAW)?
A: 1.98 nM

Q: And the IC50 (MV4-11)?
A: 11 nM

Q: And the IC50 (MZ7-mel)?
A: 107 nM

Q: And the IC50 (NCI-H747)?
A: 100 nM

Q: What about the IC50 (HCC1187) of the same compound?
A: 505 nM

Q: And the IC50 (EW-24)?
A: 149 nM

Q: And the IC50 (IA-LM)?
A: 2.39 nM

Q: And the IC50 (Becker)?
A: 135 nM

Q: And the IC50 (MC116)?
A: < 2 nM

Q: And the IC50 (MS-1)?
A: 29.5 nM

Q: What about the IC50 (TE-12) of the same compound?
A: 10.6 nM

Q: What about the IC50 (IST-MEL1) of the same compound?
A: 0.788 nM

Q: What about the IC50 (A704) of the same compound?
A: 247 nM

Q: And the IC50 (DMS-114)?
A: > 512 nM

Q: And the IC50 (KP-N-YS)?
A: 8.06 nM

Q: And the IC50 (JVM-3)?
A: 33.6 nM

Q: And the IC50 (TE-11)?
A: 9.14 nM

Q: What about the IC50 (MLMA) of the same compound?
A: 57.5 nM

Q: What about the IC50 (LU-139) of the same compound?
A: 33.6 nM

Q: And the IC50 (ES6)?
A: < 2 nM

Q: And the IC50 (PSN1)?
A: < 2 nM

Q: What about the IC50 (A388) of the same compound?
A: 1.39 nM

Q: And the IC50 (DEL)?
A: 10.3 nM

Q: What about the IC50 (HC-1) of the same compound?
A: 109 nM

Q: And the IC50 (ES8)?
A: 18.1 nM

Q: And the IC50 (NCI-H1770)?
A: 25.7 nM

Q: And the IC50 (ES7)?
A: 21.1 nM

Q: And the IC50 (ES3)?
A: 4.1 nM

Q: And the IC50 (SF-126)?
A: 38.3 nM

Q: What about the IC50 (GCIY) of the same compound?
A: 53.5 nM

Q: What about the IC50 (LAMA-84) of the same compound?
A: 19.4 nM

Q: And the IC50 (ES4)?
A: < 2 nM

Q: And the IC50 (MZ1-PC)?
A: < 2 nM

Q: What about the IC50 (HEL) of the same compound?
A: 46.3 nM

Q: What about the IC50 (NCI-H720) of the same compound?
A: > 512 nM

Q: And the IC50 (DJM-1)?
A: 54.7 nM

Q: What about the IC50 (KGN) of the same compound?
A: < 2 nM

Q: What about the IC50 (no-10) of the same compound?
A: > 512 nM

Q: And the IC50 (NCI-H82)?
A: 31.1 nM

Q: What about the IC50 (NCI-H1299) of the same compound?
A: 0.879 nM

Q: And the IC50 (NCI-H23)?
A: > 512 nM

Q: What about the IC50 (BB65-RCC) of the same compound?
A: 5.08 nM

Q: And the IC50 (TK-10)?
A: 22.7 nM

Q: And the IC50 (NCI-H446)?
A: 35.4 nM

Q: And the IC50 (GT3TKB)?
A: 12.2 nM

Q: And the IC50 (SNU1)?
A: 13.6 nM

Q: And the IC50 (NB69)?
A: 0.873 nM

Q: What about the IC50 (EM-2) of the same compound?
A: 55.4 nM

Q: And the IC50 (RCC10RGB)?
A: > 512 nM

Q: What about the IC50 (L-363) of the same compound?
A: 0.833 nM

Q: And the IC50 (HOP-62)?
A: 0.601 nM

Q: What about the IC50 (SBC-1) of the same compound?
A: 48 nM

Q: And the IC50 (SK-N-DZ)?
A: 43.2 nM

Q: What about the IC50 (C8166) of the same compound?
A: 188 nM

Q: And the IC50 (NOS-1)?
A: < 2 nM

Q: And the IC50 (RPMI-8866)?
A: > 512 nM

Q: For `C[C@]1(c2nc3c(C(N)=O)cccc3[nH]2)CCCN1` [VELIPARIB], which IC50 (MHH-PREB-1) is on record?
A: > 5000 nM

Q: And the IC50 (HCC2218)?
A: > 5000 nM

Q: What about the IC50 (D-502MG) of the same compound?
A: > 5000 nM

Q: And the IC50 (SK-MEL-2)?
A: > 5000 nM

Q: What about the IC50 (HDLM-2) of the same compound?
A: > 5000 nM

Q: And the IC50 (RXF 393)?
A: > 5000 nM

Q: What about the IC50 (NB13) of the same compound?
A: > 5000 nM

Q: And the IC50 (NB5)?
A: > 5000 nM

Q: And the IC50 (Calu-6)?
A: > 5000 nM

Q: And the IC50 (NCI-H2126)?
A: > 5000 nM

Q: And the IC50 (A3-KAW)?
A: > 5000 nM

Q: What about the IC50 (MV4-11) of the same compound?
A: > 5000 nM

Q: And the IC50 (MZ7-mel)?
A: > 5000 nM

Q: And the IC50 (NCI-H747)?
A: > 5000 nM

Q: What about the IC50 (HCC1187) of the same compound?
A: > 5000 nM

Q: What about the IC50 (EW-24) of the same compound?
A: > 5000 nM

Q: And the IC50 (IA-LM)?
A: > 5000 nM

Q: What about the IC50 (Becker) of the same compound?
A: > 5000 nM

Q: And the IC50 (MC116)?
A: > 5000 nM

Q: What about the IC50 (MS-1) of the same compound?
A: > 5000 nM

Q: And the IC50 (TE-12)?
A: > 5000 nM

Q: And the IC50 (IST-MEL1)?
A: > 5000 nM

Q: And the IC50 (A704)?
A: > 5000 nM

Q: What about the IC50 (DMS-114) of the same compound?
A: > 5000 nM

Q: What about the IC50 (KP-N-YS) of the same compound?
A: > 5000 nM

Q: And the IC50 (JVM-3)?
A: > 5000 nM

Q: And the IC50 (TE-11)?
A: > 5000 nM

Q: What about the IC50 (MLMA) of the same compound?
A: > 5000 nM

Q: And the IC50 (LU-139)?
A: > 5000 nM

Q: And the IC50 (ES6)?
A: > 5000 nM

Q: And the IC50 (PSN1)?
A: > 5000 nM

Q: And the IC50 (A388)?
A: > 5000 nM

Q: And the IC50 (DEL)?
A: > 5000 nM

Q: What about the IC50 (HC-1) of the same compound?
A: > 5000 nM

Q: And the IC50 (ES8)?
A: > 5000 nM

Q: And the IC50 (NCI-H1770)?
A: > 5000 nM

Q: And the IC50 (ES7)?
A: > 5000 nM

Q: What about the IC50 (ES3) of the same compound?
A: > 5000 nM

Q: What about the IC50 (SF-126) of the same compound?
A: > 5000 nM

Q: And the IC50 (GCIY)?
A: > 5000 nM

Q: And the IC50 (LAMA-84)?
A: > 5000 nM

Q: What about the IC50 (ES4) of the same compound?
A: > 5000 nM

Q: What about the IC50 (MZ1-PC) of the same compound?
A: > 5000 nM

Q: What about the IC50 (HEL) of the same compound?
A: > 5000 nM

Q: And the IC50 (NCI-H720)?
A: > 5000 nM

Q: And the IC50 (DJM-1)?
A: > 5000 nM

Q: And the IC50 (KGN)?
A: > 5000 nM

Q: And the IC50 (no-10)?
A: > 5000 nM

Q: What about the IC50 (NCI-H82) of the same compound?
A: > 5000 nM

Q: What about the IC50 (NCI-H1299) of the same compound?
A: > 5000 nM

Q: What about the IC50 (NCI-H23) of the same compound?
A: > 5000 nM

Q: And the IC50 (BB65-RCC)?
A: > 5000 nM

Q: What about the IC50 (TK-10) of the same compound?
A: > 5000 nM

Q: What about the IC50 (NCI-H446) of the same compound?
A: > 5000 nM

Q: And the IC50 (GT3TKB)?
A: > 5000 nM

Q: What about the IC50 (SNU1) of the same compound?
A: > 5000 nM

Q: What about the IC50 (NB69) of the same compound?
A: > 5000 nM

Q: What about the IC50 (EM-2) of the same compound?
A: > 5000 nM

Q: And the IC50 (RCC10RGB)?
A: > 5000 nM

Q: And the IC50 (L-363)?
A: > 5000 nM

Q: What about the IC50 (HOP-62) of the same compound?
A: > 5000 nM

Q: What about the IC50 (SBC-1) of the same compound?
A: > 5000 nM

Q: What about the IC50 (SK-N-DZ) of the same compound?
A: > 5000 nM

Q: And the IC50 (C8166)?
A: > 5000 nM

Q: What about the IC50 (NOS-1) of the same compound?
A: > 5000 nM

Q: And the IC50 (RPMI-8866)?
A: > 5000 nM
